In patent US9340577B2, “HLA binding motifs and peptides and their uses” (priority 1992, dated 2016):
No end group written: not given here.

Key:
Assay in all cases: biochemical
DRB1*0405 = DRB1*0405 (Homo sapiens, UniProt P01903+P01911, A100R/A169T/D86S/F76Y/I96L/K127E/L162R/M171V/N62H/P40V/Q125Y/R42H/S133A/S149N/S66Y/V115G/V209L/W38E); assay type: binding
DRB1*0901 = DRB1*0901 (Homo sapiens, UniProt P01903+P01911, A100R/A103E/D57H/D86V/F55Y/F60I/F76Y/I96F/K127E/L162R/M171V/P40D/Q125H/Q99R/R33Q/R42F/S133A/S66N/T210M/V115G/W38K/Y107V/Y59G/Y89S); assay type: binding
DR1 (DRB1*0101) = DR1 (DRB1*0101) (Homo sapiens, UniProt P01903+P01911, A100R/D57E/F55L/F60I/F76Y/I96L/L162R/M171V/P40L/Q125E/R42F/V115G/Y59C); assay type: binding
DRB1*1101 = DRB1*1101 (Homo sapiens, UniProt P01903+P01911, A100R/A169T/A87E/I96F/K41T/L162R/M171V/P40S/Q125H/Q178H/Q39Y/Q99D/R42S/S66Y/T262R/V115G/W38E); settings: Binding affinity DRB1 *1101
Sequence of DRB1*1101 (P01903 26-254 limits assumed, other chains not shown): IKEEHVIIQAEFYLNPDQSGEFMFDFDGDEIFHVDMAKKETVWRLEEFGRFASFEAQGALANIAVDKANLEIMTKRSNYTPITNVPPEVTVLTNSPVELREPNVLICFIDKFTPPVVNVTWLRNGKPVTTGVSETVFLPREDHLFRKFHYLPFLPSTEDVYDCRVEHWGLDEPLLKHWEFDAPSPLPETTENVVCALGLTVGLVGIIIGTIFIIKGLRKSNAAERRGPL

DRB4*0101 = DRB4*0101 (Homo sapiens, UniProt P01903+P13762, G164S); assay type: binding
DRB1*1302 = DRB1*1302 (Homo sapiens, UniProt P01903+P01911, A100E/A169T/K41T/L162R/M171V/P40S/Q125H/Q178H/Q39Y/Q99D/R42S/S66N/T262R/V115G/W38E/Y61H); assay type: binding
Sequence of DRB1*1302 (P01903 26-254 limits assumed, other chains not shown): as above

DRB1*0802 = DRB1*0802 (Homo sapiens, UniProt P01903+P01911, A100R/A103L/A169T/F76Y/H45Y/I96F/K41T/L162R/M171V/P40S/Q125H/Q178H/Q39Y/Q99D/R218S/R42G/S66Y/V115G/W38E); assay type: binding
DRB5*0101 = DRB5*0101 (Homo sapiens, UniProt P01903+Q30154); settings: Binding affinity DRB5 *0101
DR4w4 (DRB1*0401) = DR4w4 (DRB1*0401) (Homo sapiens, UniProt P01903+P01911, A100K/A169T/F76Y/I96L/K127E/L162R/M171V/N62H/P40V/Q125Y/R42H/S133A/S149N/S66Y/V115G/V209L/W38E); assay type: binding
DR7 (DRB1*0701) = DR7 (DRB1*0701) (Homo sapiens, UniProt P01903+P01911, A100R/A102G/A103Q/D57E/D86V/E43K/F76Y/K127E/L162R/M171V/P40G/Q125H/Q99D/R33Q/R42Y/R54Q/S133A/S66F/T210M/V115G/Y107V/Y59L/Y89S); assay type: binding
DRB1*1501 = DRB1*1501 (Homo sapiens, UniProt P01903+P01911); assay type: binding

Molecule | IC50 (DRB1*0405) [µM] | IC50 (DRB1*0901) [µM] | IC50 (DR1 (DRB1*0101)) [µM] | IC50 (DRB1*1101) [µM] | IC50 (DRB4*0101) [µM] | IC50 (DRB1*1302) [µM] | IC50 (DRB1*0802) [µM] | IC50 (DRB5*0101) [µM] | IC50 (DR4w4 (DRB1*0401)) [µM] | IC50 (DR7 (DRB1*0701)) [µM] | IC50 (DRB1*1501) [µM]
ILLYGAANTGKSLFG [Peptide 89.0018] | > 20 | > 20 | 0.23 | 2.76 | 5.06 | 2.69 | 1.75 | 1.58 | 0.15 | 6.13 | –
ETHMVIEPPKLRSAT [Peptide 89.0103] | 3.54 | > 20 | – | 3.26 | 3.91 | 1.46 | 12.2 | 2.87 | 0.778 | > 20 | –
TLAVSKNKALQAIEL [Peptide 89.0150] | 1.64 | 5.22 | – | > 20 | 0.036 | – | > 20 | > 20 | > 20 | > 20 | > 20
PEWIEQQTVLQHSFD [Peptide 89.0105] | 5.59 | – | – | – | 0.98 | 1.31 | – | – | – | 6.21 | 11.3
HQVVPALSVSKAKAL [Peptide 89.0169] | 15.5 | 1.62 | 0.099 | > 20 | > 20 | – | > 20 | > 20 | 0.398 | 4.73 | > 20
ITHIGHQVVPPMAVS [Peptide 90.0010] | 17.1 | > 20 | 0.05 | > 20 | 1.22 | – | 12.2 | > 20 | 0.235 | 4.99 | 10.1
ELQMALETLSKSQYS [Peptide 89.0183] | 3.29 | 0.204 | 0.08 | – | > 20 | 4.3 | – | 10.6 | 0.434 | 3.14 | –
LIRMECALLYTAKQM [Peptide 89.0179] | > 20 | > 20 | 0.998 | > 20 | > 20 | > 20 | > 20 | > 20 | – | 7.47 | > 20
CC[C@H](C)[C@H](NC(=O)[C@H](C)NC(=O)[C@H](CCCCN)NC(=O)[C@@H](N)Cc1c[nH]cn1)C(=O)N[C@@H](CCC(=O)O)C(=O)N[C@@H](CC(C)C)C(=O)N[C@@H](CCC(N)=O)C(=O)N[C@@H](CCSC)C(=O)N[C@@H](C)C(=O)N[C@@H](CC(C)C)C(=O)N[C@@H](CCC(N)=O)C(=O)NCC(=O)N[C@@H](CC(C)C)C(=O)N[C@@H](C)C(=O)N[C@@H](CCC(N)=O)C(=O)O [Peptide 89.0160] | > 20 | > 20 | > 20 | 16.8 | 3.47 | – | > 20 | > 20 | 0.35 | > 20 | 1.28
CWTYFDNYMRNALDG [Peptide 89.0090] | 4.88 | > 20 | – | > 20 | 2.04 | > 20 | 3.69 | – | 3.59 | 2.91 | –
HQVVPSLVASKTKAF [Peptide 90.0023] | > 20 | > 20 | > 20 | > 20 | > 20 | – | > 20 | > 20 | > 20 | 2.73 | > 20
QEQMLIQPPKIRSPA [Peptide 89.0124] | 8.05 | – | > 20 | – | 1.64 | > 20 | > 20 | – | 0.991 | 7.22 | > 20
LMQLKCPPLLITSNI [Peptide 89.0057] | 1.48 | 5.08 | 0.214 | – | 0.068 | 0.123 | 2.8 | > 20 | – | – | 0.16
LNTVKIPPTVQISTG [Peptide 90.0028] | > 20 | 6.92 | 8.74 | > 20 | > 20 | 0.778 | > 20 | > 20 | > 20 | > 20 | –
FLSYFKLFLQGTPKH [Peptide 89.0132] | 7.81 | – | > 20 | > 20 | 0.0087 | 1.3 | > 20 | > 20 | – | > 20 | > 20
TPEWIDRLTVLQHSF [Peptide 89.0069] | 0.987 | > 20 | 14.6 | – | 0.122 | 8.86 | 0.275 | > 20 | – | 5.21 | 3.83
GQVIVFPESVFSSDE [Peptide 89.0173] | > 20 | > 20 | – | > 20 | > 20 | > 20 | 2.12 | > 20 | – | > 20 | > 20
HQVVPPMAVSKAKAC [Peptide 90.0012] | > 20 | – | 0.68 | 7.01 | 0.645 | 0.908 | – | 5.79 | 2.34 | 0.434 | > 20
DWCIIGMGVTPSVAE [Peptide 89.0096] | > 20 | > 20 | > 20 | > 20 | 0.19 | 4.34 | > 20 | > 20 | – | 2.64 | 8.31
DSDIAYYYAQLADSN [Peptide 89.0071] | 6.03 | 2.34 | 0.198 | 9.14 | 0.978 | > 20 | – | > 20 | – | 4.13 | 0.013
LLQLKCPPILLTSNI [Peptide 89.0091] | > 20 | > 20 | 0.037 | > 20 | 0.122 | – | 7.29 | > 20 | 1.44 | 0.613 | –
FIHFIQGAVISFVNS [Peptide 89.0036] | 1.22 | 0.137 | – | 4.33 | 0.13 | 0.097 | 3.42 | 6.02 | – | – | 0.677
TPEWIEQQTVLQHSF [Peptide 89.0104] | 2.88 | > 20 | 0.949 | > 20 | > 20 | > 20 | 14.1 | 5.46 | – | > 20 | 13
CC(C)[C@H](NC(=O)[C@H](CO)NC(=O)[C@@H](NC(=O)[C@@H](N)[C@@H](C)O)C(C)C)C(=O)NCC(=O)N[C@H](C(=O)N[C@@H](C)C(=O)N[C@@H](CCCCN)C(=O)N[C@H](C(=O)N[C@@H](Cc1ccc(O)cc1)C(=O)NCC(=O)N[C@@H](CCC(N)=O)C(=O)N[C@H](C(=O)N[C@@H](CO)C(=O)N[C@@H](C)C(=O)O)[C@@H](C)O)[C@@H](C)O)[C@@H](C)O [Peptide 89.0163] | 2.33 | > 20 | > 20 | > 20 | 0.229 | > 20 | > 20 | > 20 | – | > 20 | 8.71
SWGMVVLLLVRYKCG [Peptide 89.0005] | 0.401 | 0.777 | – | 2.11 | 4.2 | – | > 20 | > 20 | 4.67 | – | 4.15
IAYYYAQLADSNSNA [Peptide 89.0072] | 4.87 | 3.09 | 0.382 | > 20 | 2.39 | > 20 | 7.81 | > 20 | 0.753 | – | 0.097
